In US20230322767A1, “ARYL SUBSTITUTED PYRROLO-PYRIDINONES AND THERAPEUTIC USES THEREOF” (Bayer Aktiengesellschaft, priority 2020, published 2023) one finds IC50 data, which are given here for 17 molecules.

Format in all cases: biochemical
In one test the target is CSNK1A1 (Homo sapiens (Human), UniProt P48729). Put plainly: CSNK1A1 Assay 2 (ADP-Glo, 1 μM ATP). Particulars: median, read-out: CSNK1A1 Assay 2 IC50 [mol/l] (median). In a few lines:
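ADP-Glo luminescence, taken as ADP formed, reports activity against biotinylated phospho-peptide substrate biotin-Ahx-KRRRAL-pS-VASLPGL at 1 μM ATP.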

A further test addresses CSNK1D (Homo sapiens (Human), UniProt P48730). Briefly: CSNK1D Assay (ADP-Glo, 1 μM ATP). Particulars: median, read-out: CSNK1D IC50 [mol/l] (median). In a few lines:
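Enzyme preincubated with compound 15 min at 22° C in 50 mM HEPES pH 7.5 buffer with 10 mM MgCl2, 1 mM DTT; kinase reaction run at 1 μM ATP with biotinylated peptide substrate. ADP formed was detected by ADP-Glo luminescence as the measure of activity.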

In test [1] the target is wild-type Epidermal Growth Factor Receptor (EGFR) (Homo sapiens (Human), UniProt P00533). Briefly: WT-EGFR Kinase Assay (TR-FRET, 2 mM ATP). In a few lines:
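TR-FRET read-out of biotinylated peptide phosphorylation, taken as the 665/622 nm ratio after EDTA stop and 1 h detection at 22° C. Kinase: GST fusion of human EGFR aa R669–A1210, given a 15 min compound pre-binding step; reaction run at 2 mM ATP.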

Where [2] appears, read: EGFR Wildtyp 2 mM ATP IC50 [mol/l] (median), median or individual measurements.
Where [3] appears, read: read-out: EGFR Wildtyp 2 mM ATP IC50 [mol/l] (median), median or individual measurements.

Read-outs that look alike come from different tables or passages of the source.

CSNK1D, sequence (P48730 whole entry): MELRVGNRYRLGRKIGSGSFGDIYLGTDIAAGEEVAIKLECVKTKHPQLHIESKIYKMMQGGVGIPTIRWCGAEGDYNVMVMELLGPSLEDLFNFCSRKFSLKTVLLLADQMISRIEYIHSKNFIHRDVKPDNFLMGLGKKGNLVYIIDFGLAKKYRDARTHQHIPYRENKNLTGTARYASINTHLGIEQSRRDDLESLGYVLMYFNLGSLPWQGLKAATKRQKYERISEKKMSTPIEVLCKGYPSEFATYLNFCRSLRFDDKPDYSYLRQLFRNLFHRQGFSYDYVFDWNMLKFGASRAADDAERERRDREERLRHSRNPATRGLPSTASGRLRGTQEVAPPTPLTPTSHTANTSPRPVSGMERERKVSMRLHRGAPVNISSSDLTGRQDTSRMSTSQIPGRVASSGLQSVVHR
CSNK1A1, sequence (P48729 whole entry): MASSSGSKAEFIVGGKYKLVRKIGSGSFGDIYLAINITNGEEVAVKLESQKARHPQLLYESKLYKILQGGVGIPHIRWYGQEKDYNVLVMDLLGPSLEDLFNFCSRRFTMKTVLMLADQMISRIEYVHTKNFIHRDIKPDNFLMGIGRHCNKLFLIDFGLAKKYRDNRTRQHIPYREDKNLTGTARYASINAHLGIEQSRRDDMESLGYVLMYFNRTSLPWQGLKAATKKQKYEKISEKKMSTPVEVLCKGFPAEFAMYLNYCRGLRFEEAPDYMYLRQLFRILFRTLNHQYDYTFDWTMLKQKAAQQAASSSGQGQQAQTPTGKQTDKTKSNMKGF
wild-type Epidermal Growth Factor Receptor (EGFR), sequence (P00533 669-1210): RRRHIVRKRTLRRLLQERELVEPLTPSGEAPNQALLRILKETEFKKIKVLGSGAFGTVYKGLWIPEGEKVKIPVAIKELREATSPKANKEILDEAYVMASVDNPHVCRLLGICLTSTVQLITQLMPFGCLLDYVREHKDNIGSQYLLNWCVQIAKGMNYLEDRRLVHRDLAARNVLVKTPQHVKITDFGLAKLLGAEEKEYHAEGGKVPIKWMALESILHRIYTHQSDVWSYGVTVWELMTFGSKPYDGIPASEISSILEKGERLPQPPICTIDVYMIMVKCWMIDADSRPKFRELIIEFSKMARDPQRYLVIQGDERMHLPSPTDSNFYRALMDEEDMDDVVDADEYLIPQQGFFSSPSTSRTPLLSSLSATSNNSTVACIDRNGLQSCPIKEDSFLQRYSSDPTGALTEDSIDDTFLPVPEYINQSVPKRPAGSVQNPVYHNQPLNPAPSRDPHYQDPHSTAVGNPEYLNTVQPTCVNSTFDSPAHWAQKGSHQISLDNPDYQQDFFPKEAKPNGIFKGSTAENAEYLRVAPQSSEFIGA

Turning to `Cc1ccc(-c2c(-c3ccnc(NC(=O)C(C)c4ccc(F)cc4)c3)[nH]c3c2C(=O)NC(C)(C)C3)cc1` (racemic) [Example 91, N-{4-[6,6-dimethyl-3-(4-methylphenyl)-4-oxo-4,5,6,7-tetrahydro-1H-pyrrolo[3,2-c]pyridin-2-yl]pyridin-2-yl}-2-(4-fluorophenyl)propanamide], the results for the IC50 (at CSNK1A1; on CSNK1D; in test [1] (setting [2])) were 7.7 nM, 7.6 nM and over 20000 nM, respectively.

Turning to `CC(C(=O)Nc1cc(-c2[nH]c3ccn(C)c(=O)c3c2-c2ccccc2Cl)ccn1)c1ccc(F)cc1` (racemic) [Example 112, N-{4-[3-(2-chlorophenyl)-5-methyl-4-oxo-4,5-dihydro-1H-pyrrolo[3,2-c]pyridin-2-yl]pyridin-2-yl}-2-(4-fluorophenyl)propanamide], the IC50 is 23 nM at CSNK1A1, 14 nM at CSNK1D and over 20000 nM in test [1] (setting [2]).

As to `Cn1cc(CC(F)F)c2[nH]c(-c3ccnc(NC(=O)C(CC(F)F)c4ccc(F)cc4)c3)c(-c3ccccc3)c2c1=O` (racemic) [Example 147, (rac)-N-{4-[7-(2,2-difluoroethyl)-5-methyl-4-oxo-3-phenyl-4,5-dihydro-1H-pyrrolo[3,2-c]pyridin-2-yl]pyridin-2-yl}-4,4-difluoro-2-(4-fluorophenyl)butanamide], the IC50 on CSNK1A1 is 4.3 nM; at CSNK1D it was 2.9 nM; in test [1] (setting [2]) it was over 20000 nM.

For `O=C(Cc1ccc(F)cc1)Nc1cc(-c2[nH]c3ccn(C4CC4)c(=O)c3c2-c2ccccc2)ccn1` [Example 159, N-[4-(5-cyclopropyl-4-oxo-3-phenyl-4,5-dihydro-1H-pyrrolo[3,2-c]pyridin-2-yl)pyridin-2-yl]-2-(4-fluorophenyl)acetamide], the IC50 at CSNK1A1 was 0.96 nM; at CSNK1D, 1.6 nM; in test [1] (setting [3]), over 20000 nM.

As to `CN1C(=O)c2c([nH]c(-c3ccnc(NC(=O)C(CC(F)F)c4ccc(F)cc4)c3)c2-c2ccccc2)CC12CC2` (racemic) [Example 80, 4,4-difluoro-2-(4-fluorophenyl)-N-[4-(5′-methyl-4′-oxo-3′-phenyl-1′,4′,5′,7′-tetrahydrospiro-[cyclopropane-1,6′-pyrrolo[3,2-c]pyridin]-2′-yl)pyridin-2-yl]butanamide], the IC50 at CSNK1A1 is 4.7 nM; on CSNK1D it was 5.1 nM; in test [1] (setting [2]), over 20000 nM.

As for `CC1(C)Cc2[nH]c(-c3ccnc(NC(=O)Cc4ccc(F)cc4)c3)c(-c3ccccc3F)c2C(=O)N1` [Example 84, 2-(4-fluorophenyl)-N-{4-[3-(2-fluorophenyl)-6,6-dimethyl-4-oxo-4,5,6,7-tetrahydro-1H-pyrrolo[3,2-c]pyridin-2-yl]pyridin-2-yl}acetamide], the IC50 at CSNK1A1 is 3.4 nM; on CSNK1D it was 4.8 nM; in test [1] (setting [2]), over 20000 nM; in test [1] (read-out: EGFR Wildtyp 2 mM ATP IC50 [mol/l] (median), median or individual measurements, listed as 084) it was 16000 nM.

Take `CC(C(=O)Nc1cc(-c2[nH]c3c(c2-c2ccc(Cl)cc2)C(=O)NC(C)(C)C3)ccn1)c1ccc(F)cc1` (racemic) [Example 89, N-{4-[3-(4-chlorophenyl)-6,6-dimethyl-4-oxo-4,5,6,7-tetrahydro-1H-pyrrolo[3,2-c]pyridin-2-yl]pyridin-2-yl}-2-(4-fluorophenyl)propanamide]: the IC50 on CSNK1A1 is 6.8 nM; at CSNK1D, 4.3 nM; in test [1] (setting [2]), over 20000 nM.

As to `CN1CCc2[nH]c(-c3ccnc(NC(=O)C(CC(F)F)c4ccc(F)cc4)c3)c(-c3ccc(F)cc3)c2C1=O` (racemic) [Example 139, 4,4-difluoro-2-(4-fluorophenyl)-N-{4-[3-(4-fluorophenyl)-5-methyl-4-oxo-4,5,6,7-tetrahydro-1H-pyrrolo[3,2-c]pyridin-2-yl]pyridin-2-yl}butanamide], the results for the IC50 (at CSNK1A1; at CSNK1D; in test [1] (setting [2])) were 4.2 nM, 5.5 nM and over 20000 nM, respectively.

On to `CC(C(=O)Nc1cc(-c2[nH]c3ccn(C)c(=O)c3c2-c2ccccc2)ccn1)c1ccc(F)cc1` (racemic) [Example 103, 2-(4-fluorophenyl)-N-[4-(5-methyl-4-oxo-3-phenyl-4,5-dihydro-1H-pyrrolo[3,2-c]pyridin-2-yl)pyridin-2-yl]propanamide], for which the IC50 on CSNK1A1 was 5 nM; at CSNK1D, 11 nM; in test [1] (setting [2]), over 20000 nM.

Turning to `CN1CCc2[nH]c(-c3ccnc(NC(=O)C(CC(F)F)c4ccc(F)cc4)c3)c(-c3ccc(F)cc3F)c2C1=O` (single isomer, unassigned) [Example 67, N-{4-[3-(2,4-difluorophenyl)-5-methyl-4-oxo-4,5,6,7-tetrahydro-1H-pyrrolo[3,2-c]pyridin-2-yl]pyridin-2-yl}-4,4-difluoro-2-(4-fluorophenyl)butanamide], the IC50 on CSNK1A1 was 16 nM; on CSNK1D, 8.6 nM; in test [1] (setting [2]) it was over 20000 nM.

In the case of `Cn1cc(CC2CC2)c2[nH]c(-c3ccnc(NC(=O)C(CC(F)F)c4ccc(F)cc4)c3)c(-c3ccc(F)cc3)c2c1=O` (racemic) [Example 65, N-{4-[7-(cyclopropylmethyl)-3-(4-fluorophenyl)-5-methyl-4-oxo-4,5-dihydro-1H-pyrrolo[3,2-c]pyridin-2-yl]pyridin-2-yl}-4,4-difluoro-2-(4-fluorophenyl)butanamide], the IC50 was 11 nM at CSNK1A1, 6.6 nM on CSNK1D and over 20000 nM in test [1] (setting [2]).

For the molecule `COCCNC(=O)c1ccc(CC(=O)Nc2cc(-c3[nH]c4c(c3-c3ccc(F)cc3)C(=O)N(C)CC4)ccn2)cc1` [Example 140, 4-[2-({4-[3-(4-fluorophenyl)-5-methyl-4-oxo-4,5,6,7-tetrahydro-1H-pyrrolo[3,2-c]pyridin-2-yl]pyridin-2-yl}amino)-2-oxoethyl]-N-(2-methoxyethyl)benzamide], the IC50 on CSNK1A1 is 1.6 nM; at CSNK1D, 1.8 nM; in test [1] (setting [3]), over 20000 nM.

In the case of `O=C(Nc1cc(-c2[nH]c3ccn(C4CC4)c(=O)c3c2-c2ccc(F)cc2)ccn1)C(CC(F)F)c1ccc(F)cc1` (single isomer, unassigned; (+)) [Example 136, (+)-N-{4-[5-cyclopropyl-3-(4-fluorophenyl)-4-oxo-4,5-dihydro-1H-pyrrolo[3,2-c]pyridin-2-yl]pyridin-2-yl}-4,4-difluoro-2-(4-fluorophenyl)butanamide], the IC50 on CSNK1A1 is 3.1 nM; on CSNK1D, 2.1 nM; in test [1] (setting [3]), over 20000 nM.

In the case of `CC(C(=O)Nc1cc(-c2[nH]c3ccn(C)c(=O)c3c2-c2ccc(F)c(F)c2)ccn1)c1ccc(F)cc1` (racemic) [Example 114, N-{4-[3-(3,4-difluorophenyl)-5-methyl-4-oxo-4,5-dihydro-1H-pyrrolo[3,2-c]pyridin-2-yl]pyridin-2-yl}-2-(4-fluorophenyl)propanamide], the IC50 at CSNK1A1 was 4.8 nM; at CSNK1D it was 6.8 nM; in test [1] (setting [2]), over 20000 nM.

As for `CC(C(=O)Nc1cc(-c2[nH]c3c(c2-c2ccc(F)cc2F)C(=O)N(C)CC3)ccn1)c1ccc(F)cc1` (single isomer, unassigned) [Example 71, N-{4-[3-(2,4-difluorophenyl)-5-methyl-4-oxo-4,5,6,7-tetrahydro-1H-pyrrolo[3,2-c]pyridin-2-yl]pyridin-2-yl}-2-(4-fluorophenyl)propanamide], the results for the IC50 (on CSNK1A1; at CSNK1D; in test [1] (setting [3])) were 1.7 nM, 2.1 nM and over 20000 nM, respectively.

In the case of `Cc1cccc(-c2c(-c3ccnc(NC(=O)C(C)c4ccc(F)cc4)c3)[nH]c3c2C(=O)NC(C)(C)C3)c1` (racemic) [Example 88, N-{4-[6,6-dimethyl-3-(3-methylphenyl)-4-oxo-4,5,6,7-tetrahydro-1H-pyrrolo[3,2-c]pyridin-2-yl]pyridin-2-yl}-2-(4-fluorophenyl)propanamide], the IC50 at CSNK1A1 is 8.6 nM; on CSNK1D, 11 nM; in test [1] (setting [2]), over 20000 nM.

Consider `CN1CCc2[nH]c(-c3ccnc(NC(=O)Cc4ccc(F)cc4)c3)c(-c3ccccc3)c2C1=O` [Example 1, 2-(4-fluorophenyl)-N-[4-(5-methyl-4-oxo-3-phenyl-4,5,6,7-tetrahydro-1H-pyrrolo[3,2-c]pyridin-2-yl)pyridin-2-yl]acetamide], for which the figures for the IC50 (on CSNK1A1; on CSNK1D; in test [1] (setting [3])) were 1.3 nM, 3.7 nM and over 20000 nM, respectively.
